# Test results reported in ChEMBL document CHEMBL1201862, “PubChem BioAssay data set” (2004).
#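 Cultured in 96-well plates, cells were exposed to test compound for 48 hours across five concentrations. Here, GI50 denotes the concentration required for 50% inhibition of growth.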 The source made the active and inactive calls. No stated cut-off is given here; in the data, active = GI50 up to about 1.1 µM and inactive = higher.
# Columns and labels:
# Test in all cases: NCI anticancer screen, dose series, 48 h
# A549 = system: A549
# MDA-MB-435 = system: MDA-MB-435
# HT-29 = system: HT-29
# A498 = system: A498
# K562 = system: K562
# OVCAR-3 = system: OVCAR-3
# HCT-15 = system: HCT-15
# HOP-92 = system: HOP-92
# Hs-578T = system: Hs-578T
# SF-268 = system: SF-268
# UACC-257 = system: UACC-257
# KM12 = system: KM12
# SK-MEL-28 = system: SK-MEL-28
# OVCAR-5 = system: OVCAR-5
# EKVX = system: EKVX
# MCF7 = system: MCF7
# MDA-MB-231 = system: MDA-MB-231
# MOLT-4 = system: MOLT-4
# HL-60 = system: HL-60
# SR = system: SR
SMILES,GI50 (A549),GI50 (MDA-MB-435),GI50 (HT-29),GI50 (A498),GI50 (K562),GI50 (OVCAR-3),GI50 (HCT-15),GI50 (HOP-92),GI50 (Hs-578T),GI50 (SF-268),GI50 (UACC-257),GI50 (KM12),GI50 (SK-MEL-28),GI50 (OVCAR-5),GI50 (EKVX),GI50 (MCF7),GI50 (MDA-MB-231),GI50 (MOLT-4),GI50 (HL-60),GI50 (SR)
COC(=O)C1Cc2c(OC)ccc(OC)c2CC(C(=O)OC)C1=O (stereo unspecified),> 100 µM (inactive),> 100 µM (inactive),> 100 µM (inactive),> 100 µM (inactive),> 100 µM (inactive),> 100 µM (inactive),> 100 µM,44 µM (inactive),> 100 µM (inactive),> 100 µM (inactive),> 100 µM (inactive),> 100 µM (inactive),> 100 µM (inactive),> 100 µM (inactive),> 100 µM (inactive),> 100 µM (inactive),> 100 µM (inactive),> 100 µM (inactive),,
OCCC1(O)CCC(O)CC1 (stereo unspecified),> 100 µM (inactive),,> 100 µM (inactive),> 100 µM (inactive),> 100 µM (inactive),> 100 µM (inactive),> 100 µM,> 100 µM (inactive),,> 100 µM (inactive),> 100 µM (inactive),> 100 µM (inactive),> 100 µM (inactive),> 100 µM (inactive),> 100 µM (inactive),,,> 100 µM (inactive),> 100 µM (inactive),> 100 µM (inactive)
N#Cc1[nH]c(=O)n(-c2ccc([N+](=O)[O-])cc2)c1N,> 10 µM (inactive),> 10 µM (inactive),> 10 µM (inactive),> 10 µM (inactive),> 10 µM (inactive),> 10 µM (inactive),> 10 µM,> 10 µM (inactive),> 10 µM (inactive),> 10 µM (inactive),> 10 µM (inactive),,> 10 µM (inactive),> 10 µM (inactive),> 10 µM (inactive),,> 10 µM (inactive),> 10 µM (inactive),> 10 µM (inactive),> 10 µM (inactive)
C=CC(=O)N1C/C(=C\c2ccc(N(C)C)cc2)C(=O)/C(=C/c2ccc(N(C)C)cc2)C1,> 100 µM (inactive),87.5 µM (inactive),10.4 µM (inactive),> 100 µM (inactive),8.97 µM (inactive),41.3 µM (inactive),18.2 µM,> 100 µM (inactive),30 µM (inactive),67.3 µM (inactive),> 100 µM (inactive),8.67 µM (inactive),> 100 µM (inactive),> 100 µM (inactive),> 100 µM (inactive),4.73 µM (inactive),> 100 µM (inactive),25.8 µM (inactive),,
O=C1O/C(=C(\Br)c2ccc([N+](=O)[O-])cc2)c2ccccc21,> 100 µM (inactive),62.7 µM (inactive),41.1 µM (inactive),> 100 µM (inactive),30.1 µM (inactive),> 88.5 µM (inactive),> 50.9 µM,> 100 µM (inactive),74.8 µM (inactive),> 74 µM (inactive),> 74.8 µM (inactive),> 100 µM (inactive),> 100 µM (inactive),> 100 µM (inactive),> 100 µM (inactive),48.5 µM (inactive),,27.8 µM (inactive),36.1 µM (inactive),28.8 µM (inactive)
COc1cc2cc3c4c(cc(OC)c(OC)c4c2cc1OC)CCN3C(=O)N(C)C,> 100 µM (inactive),,83.4 µM (inactive),97.3 µM (inactive),> 100 µM (inactive),> 100 µM (inactive),> 100 µM,91 µM (inactive),,> 100 µM (inactive),> 100 µM (inactive),> 100 µM (inactive),27.9 µM (inactive),> 100 µM (inactive),> 100 µM (inactive),,,> 100 µM (inactive),> 100 µM (inactive),> 100 µM (inactive)
COc1cc2c3c(c4cc(OC)c(OC)cc4c2cc1OC)[C@H](O)[C@@H]1CCCN1C3,< 0.0254 µM (active),< 0.0265 µM (active),< 0.0191 µM (active),< 0.0208 µM (active),< 0.021 µM (active),0.0384 µM (active),< 0.0239 µM,< 0.0478 µM (active),,< 0.0408 µM (active),< 0.0383 µM (active),< 0.0232 µM (active),< 0.0284 µM (active),< 0.0316 µM (active),< 0.0217 µM (active),< 0.0173 µM (active),< 0.0342 µM (active),< 0.01 µM (active),< 0.0357 µM (active),0.029 µM (active)
CCOC(=O)C1=COC(C)(CCc2ccccc2)CC1=O (stereo unspecified),40.9 µM (inactive),51.8 µM (inactive),56.2 µM (inactive),> 100 µM (inactive),40.3 µM (inactive),80.2 µM (inactive),> 100 µM,,45 µM (inactive),> 100 µM (inactive),> 100 µM (inactive),56.2 µM (inactive),> 100 µM (inactive),> 100 µM (inactive),> 100 µM (inactive),44 µM (inactive),82.6 µM (inactive),43.2 µM (inactive),,
